The source of these data is US11844866B2, “Gastroretentive extended release dosage form” (Novelstar Pharmaceuticals, Inc., priority 2020, dated 2023).

A short description of data set [1]: API stability studies (stress, long term, accelerated; enantiomer interconversion). It counts as physicochemical. An excerpt: Polymorphism has been observed for Apremilast and seven polymorphic forms (designated A-G) of the active substance were identified.
An amorphous form generally provides better solubility and bioavailability than the crystalline form and may be useful for formulations which can have better solubility, and compressibility etc. which are important for formulation and product manufacturing.

Data set [2] in a line: API particle size (d90). It counts as physicochemical. Conditions: API particles.
For data set [3] the following is noted: on storage and in vivo; cited from earlier work.
For data set [4] the following is noted: previously reported dosage form; cited from earlier work.
The conditions of data set [5]: cited from earlier work.
The nature of data set [6]: Solubility of Tofacitinib citrate in different pH media and water. It counts as physicochemical. Conditions: 37 °C, read-out: Solubility @37° C., mg/mL for 6 hours. As for the experimental part:
The active substance is a white to off-white solid, slightly soluble in water (2.9 mg/mL) and non-hygroscopic. Tofacitinib contains two chiral centers at C3 and C4. The active substance is the enantiomer with absolute configuration (R) for both the C-3 and the C-4 positions. The overall stereochemistry of tofacitinib is therefore considered as critical and is assured by the quality of the starting materials and the route of synthesis design.
Polymorphism has been studied for the active substance. The crystalline citrate salt, Form A, has been the sole development form of the active substance used in all toxicology and clinical studies. The solubility Tofacitinib citrate is pH dependent, the solubility is decried with pH increasing. […] The pH dependent solubility can lead to pH-dependent in vivo drug release from sustained release matrices. Drug release varies as a function of movement through segments of the gastrointestinal tract with different pH. […] The Tofacitinib citrate gastric retention drug delivery system that would provide the highest bioavailability are very desirable because the drug active has highest solubility in the stomach.

The conditions of data set [7]: slightly soluble; cited from earlier work.

Read-outs that look alike come from different tables or passages of the source.

As for `CCOc1cc([C@@H](CS(C)(=O)=O)N2C(=O)c3cccc(NC(C)=O)c3C2=O)ccc1OC` [Apremilast Form B], in data set [1] (stress test conditions), the “stability after exposing to different stress test conditions” value is reported as “stable”. Besides, in data set [2], the “particle size d90” value came to 8 μm.
`CCOc1cc([C@@H](CS(C)(=O)=O)N2C(=O)c3cccc(NC(C)=O)c3C2=O)ccc1OC` [Apremilast amorphous]: in data set [1] (stress conditions, long term 25° C./60% RH and accelerated 40° C./75% RH), the “stability after 6 months” value was “stable”. The “particle size d90” value in data set [2] (listed as Apremilast amorphous form) turned out to be 22 μm.
As to `CCOc1cc([C@@H](CS(C)(=O)=O)N2C(=O)c3cccc(NC(C)=O)c3C2=O)ccc1OC` [Apremilast, (+) enantiomer of 2-[1-(3-ethoxy-4-methoxyphenyl)-2-methanesulfonylethyl]-4-acetylaminoisoindolin-1,3-dione], the “interconversion of (S)-enantiomer to (R)-enantiomer” value in data set [3] is “no interconversion”. Moreover, the “share of absorption taking place in the proximal small bowel” value in data set [4] is given as “about 93%”. For the same compound, in data set [5] (irrespective of pH range), the “solubility in aqueous buffers” value is on record as “practically insoluble”. Further, the “Biopharmaceutical Classification System class” value in data set [5] (low solubility and low permeability) is given as “BCS Class 4”.
For `C[C@@H]1CCN(C(=O)CC#N)C[C@@H]1N(C)c1ncnc2[nH]ccc12.O=C(O)CC(O)(CC(=O)O)C(=O)O` [Tofacitinib citrate, 3-((3R,4R)-4-methyl-3-(methyl(7H-pyrrolo[2,3-d]pyrimidin-4 yl)amino)piperidin-1-yl)-3-oxopropanenitrile, 2-hydroxypropane-1,2,3-tricarboxylic acid], the solubility at 6 h is 27.8 mg/mL in data set [6] (pH 1.18, simulated gastric fluid, thermodynamic from solid, 0.1N HCl, final pH observed 1.18); 2.9 mg/mL in data set [6] (pH 4.9, thermodynamic from solid, Water, final pH observed 4.90); 4.57 mg/mL in data set [6] (pH 4.5 medium, aqueous buffer, thermodynamic from solid, pH 4.5, final pH observed 4.50); 2.03 mg/mL in data set [6] (pH 6.8 medium, aqueous buffer, thermodynamic from solid, pH 6.8, final pH observed 6.78). Also, the solubility in water in data set [7] is 2900 µg/mL.
